From publication PMC5056344, “Highly Efficient and Stable Novel NanoBiohybrid Catalyst to Avert 3,4-Dihydroxybenzoic Acid Pollutant in Water” (Scientific Reports, 2016)

System: T1, protocatechuate 3,4-dioxygenase (3,4-POD)
T1 construct: gene pcaG; 700 kDa; (alpha-beta)n, n = 2-12, non-heme Fe(III); free enzyme
Assay: disappearance of […],4-DHBA at […] nm; non-linear Michaelis-Menten fit
Format: biochemical, Pseudomonas sp.
Details: free enzyme; 50 mM CHES, pH 9.0, 55 °C; 3,4-DHBA 1–200 μM

`O=C(O)c1ccc(O)c(O)c1` [3,4-dihydroxybenzoic acid] showed a Km of 37 ± 15 µM.
